“Also recorded” adds a separate entry of the source.
Columns and labels:
human GPR84 [1] = biological target: T1, human GPR84 (Homo sapiens, UniProt Q9NQS5); experiment: cell-based; format: cell-based; conditions: for Emax: read-out: efficacy (Emax), cAMP assay; for EC50: CHO cells expressing human GPR84, forskolin 10 μM
Target sequence in this assay (Q9NQS5 whole entry): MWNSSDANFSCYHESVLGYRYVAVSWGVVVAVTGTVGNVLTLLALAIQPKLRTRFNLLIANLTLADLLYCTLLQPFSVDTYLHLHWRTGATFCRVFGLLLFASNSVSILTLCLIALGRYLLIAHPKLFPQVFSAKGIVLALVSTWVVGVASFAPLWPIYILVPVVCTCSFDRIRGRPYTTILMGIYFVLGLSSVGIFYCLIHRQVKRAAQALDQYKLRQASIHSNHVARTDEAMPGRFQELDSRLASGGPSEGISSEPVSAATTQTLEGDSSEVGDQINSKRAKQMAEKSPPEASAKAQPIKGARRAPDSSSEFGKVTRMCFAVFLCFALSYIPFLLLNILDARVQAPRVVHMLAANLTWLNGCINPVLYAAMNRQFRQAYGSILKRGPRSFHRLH

human GPR84 [2] = experiment: pathway bias calculation, Gi; format: cell-based; conditions: corresponding to the bias factor
[3] = metabolic stability in human liver microsomes; format: in vitro ADME; conditions: for metabolic stability, in words: human liver microsomes 0.5 mg/mL, compound 1 μM; for degradation after an incubation period of 60 min: human liver microsomes; for degradation after 30 min of incubation, in words: human microsomes
CHO wild-type (wt) cells = experiment: cAMP accumulation assay in wild-type CHO cells not expressing GPR84
human GPR84 [4] = biological target: T1, human GPR84; conditions: compound 10 μM
Target sequence in this assay (Q9NQS5 whole entry): as above
Target sequence in this assay (P32121 whole entry partner): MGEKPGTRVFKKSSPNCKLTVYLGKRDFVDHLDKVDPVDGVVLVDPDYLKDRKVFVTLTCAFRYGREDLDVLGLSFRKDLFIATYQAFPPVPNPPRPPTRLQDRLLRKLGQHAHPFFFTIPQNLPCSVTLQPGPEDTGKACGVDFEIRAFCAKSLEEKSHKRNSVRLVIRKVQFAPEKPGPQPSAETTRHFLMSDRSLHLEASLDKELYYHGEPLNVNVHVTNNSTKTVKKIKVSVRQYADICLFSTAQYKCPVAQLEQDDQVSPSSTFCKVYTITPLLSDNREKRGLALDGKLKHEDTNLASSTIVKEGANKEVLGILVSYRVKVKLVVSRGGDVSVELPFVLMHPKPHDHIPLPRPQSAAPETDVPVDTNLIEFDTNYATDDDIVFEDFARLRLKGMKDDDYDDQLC

human GPR84 [5] = biological target: T1, human GPR84; experiment: cell-based; conditions: EC50 ± SEM, β-arrestin assay, CHO cells expressing human GPR84
Target sequence in this assay (Q9NQS5 whole entry): as the sequence (Q9NQS5 whole entry) above
Target sequence in this assay (P32121 whole entry partner): as the sequence (P32121 whole entry partner) above

[6] = system: X-linked inhibitor of apoptosis; conditions: read-out: IC50, X-linked inhibitor of apoptosis; cited from earlier work
rodents = conditions: orally, acute exposure; cited from earlier work
[7] = both, human, pooled human liver microsomes
[8] = high concentrations of up to 100 μM

O=c1cc(NCCc2ccc(Br)cc2)[nH]c(=O)[nH]1 [Compound 48, 6-(p-Bromophenylethylamino)-2,4(1H,3H)-pyrimidinedione]
Emax (human GPR84 [1]): 127% | preference for Gi coupling versus β-arrestin recruitment (human GPR84 [2]): 20 fold | metabolic stability, in words [3]: metabolically stable; also recorded: highly stable | degradation after an incubation period of 60 min [3]: negligible | degradation after 30 min of incubation, in words [3]: no degradation | effect on forskolin-induced cAMP accumulation in CHO wt cells (CHO wild-type (wt) cells; concentrations of up to 1 μM): None of the tested compounds showed any significant effect

COc1ccc(CCNc2cc(=O)[nH]c(=O)[nH]2)cc1OC [Compound 60, 6-(m,p-Dimethoxyphenethylamino)-2,4(1H,3H)-pyrimidinedione]
EC50 (human GPR84 [1]; EC50 ± SEM, cAMP assay): 810 ± 230 nM | Emax (human GPR84 [1]): 116% | percent receptor activation at 10 μM, β-arrestin assay (human GPR84 [4]): 28% | EC50 (human GPR84 [5]): > 10000 nM

CCCCCCCCCNc1cc(=O)[nH]c(=O)[nH]1 [Compound 22, 6-Nonylamino-2,4(1H,3H)-pyrimidinedione]
Emax (human GPR84 [1]): 118% | half-life at 1 μM [3, 7]: 2 min | microsomal CLint at 1 μM [3, 7]: 880 µL/min/mg | EC50 (human GPR84 [5]): 34 ± 7 nM

CCc1ccc(CCNc2cc(=O)[nH]c(=O)[nH]2)cc1 [Compound 49, 6-(p-Ethylphenylethylamino)-2,4(1H,3H)-pyrimidinedione]
EC50 (human GPR84 [1]; EC50, cAMP assay): < 10 nM | Emax (human GPR84 [1]): 136% | EC50 (human GPR84 [5]): 120 ± 50 nM | effect on forskolin-induced cAMP accumulation in CHO wt cells (CHO wild-type (wt) cells; concentrations of up to 1 μM): None of the tested compounds showed any significant effect

O=c1cc(NCCc2c[nH]c3ccccc23)[nH]c(=O)[nH]1 [Compound 62, 6-(1H-Indol-3-ylethylamino)-2,4(1H,3H)-pyrimidinedione]
percent receptor activation at 10 μM, β-arrestin assay (human GPR84 [4]): 14% | EC50 (human GPR84 [5]): > 10000 nM

CCCCCCNc1cc(=O)[nH]c(=O)[nH]1 [Compound 20, 6-Hexylamino-2,4(1H,3H)-pyrimidinedione]
Emax (human GPR84 [1]): 127% | metabolic stability, in words [3]: metabolically stable; also recorded: highly stable | degradation after an incubation period of 60 min [3]: negligible | degradation after 30 min of incubation, in words [3]: no degradation | effect on forskolin-induced cAMP accumulation in CHO wt cells (CHO wild-type (wt) cells; concentrations of up to 1 μM): None of the tested compounds showed any significant effect | effect on forskolin-induced cAMP accumulation in CHO wt cells (CHO wild-type (wt) cells; [8]): no effect

CCCCCCCCNc1cc(=O)[nH]c(=O)[nH]1 [Compound 4, 6-octylaminouracil]
Emax (human GPR84 [1]): 104% | effect in nontransfected CHO cells (cAMP assay) (CHO wild-type (wt) cells): no effect | effect on forskolin-induced cAMP accumulation in CHO wt cells (CHO wild-type (wt) cells; concentrations of up to 1 μM): None of the tested compounds showed any significant effect | effect on forskolin-induced cAMP accumulation in CHO wt cells (CHO wild-type (wt) cells; [8]): no effect

O=c1cc(NCCc2ccc(Cl)cc2)[nH]c(=O)[nH]1 [Compound 47, 6-((p-chlorophenylethyl)amino)-2,4(1H,3H)-pyrimidinedione]
Emax (human GPR84 [1]): 137% | preference for Gi coupling versus β-arrestin recruitment (human GPR84 [2]): 79 fold | effect on forskolin-induced cAMP accumulation in CHO wt cells (CHO wild-type (wt) cells; concentrations of up to 1 μM): None of the tested compounds showed any significant effect

CCCCCCCCCCCC1=C(O)C(=O)C=C(O)C1=O [embelin (6), embelin]
IC50 [6]: 4100 nM | dose found to be safe (rodents): up to 3 g/kg

CCCCCCCCCCNc1cc(=O)n(C)c(=O)[nH]1 [Compound 33, 6-Decylamino-3-methyl-2,4(1H,3H)-pyrimidinedione]
EC50 (human GPR84 [1]; EC50 ± SEM, cAMP assay): 1900 ± 680 nM | Emax (human GPR84 [1]): 72% | percent receptor activation at 10 μM, β-arrestin assay (human GPR84 [4]): 8% | EC50 (human GPR84 [5]): > 10000 nM

Oc1cc(NCCc2ccccc2)nc(O)n1 [Compound 42, 6-(2-Phenylethylamino)-2,4(1H,3H)-pyrimidinedione]
metabolic stability, in words [3]: highly stable | degradation after an incubation period of 60 min [3]: negligible | degradation after 30 min of incubation, in words [3]: no degradation

From PMC6044507 (ACS Omega, 2018)
